The record followed here is US8987268B2, “Pyrrolopyridazine JAK3 inhibitors and their use for the treatment of inflammatory and autoimmune diseases” (Bristol-Myers Squibb Company, priority 2011, dated 2015).

A word on the IC50: it is the concentration needed to halve the response being measured.

One assay deals with GST-JAK1 enzyme (Homo sapiens (Human), UniProt P23458). The experiment in a line: JAK1 Kinase Assay Protocol. Particulars: read-out: LLE_JAK1 (IC50). The format is biochemical. Here is the method:
JAK1 Kinase Assay Protocol
(§1) The assay reactions were performed in U-bottom 384-well plates. […] The reaction was initiated by the combination of GST-JAK1 enzyme with substrates and test compounds. The reactions were incubated at room temperature for 3 hours and terminated by adding 60 μl of 35 mM EDTA to each sample. Each reaction mixture was analyzed on the Caliper LabChip 3000 (Caliper, Hopkinton, Mass.) by electrophoretic separation of the fluorescent substrate and phosphorylated product. […] Compounds were dissolved at 10 mM in dimethylsulfoxide (DMSO) and evaluated at eleven concentrations. IC50 values were derived by non-linear regression analysis.

The next assay addresses GST-JAK3 enzyme (Homo sapiens (Human), UniProt P52333). The experiment in a line: JAK3 Kinase Assay Protocol (Caliper). The format is biochemical. To be noted: JAK3 kinase inhibition; read-out: LLE_JAK3_FB (IC50). Here is the method:
JAK3 Kinase Assay Protocol (Caliper)
as §1, with “GST-JAK3” for “GST-JAK1”

Each structure is given as a SMILES string. Structures can show the parent of a compound that is named as a salt. Where two headings read alike, the source gives them in different places.

Sequence of GST-JAK1 enzyme (P23458 whole entry): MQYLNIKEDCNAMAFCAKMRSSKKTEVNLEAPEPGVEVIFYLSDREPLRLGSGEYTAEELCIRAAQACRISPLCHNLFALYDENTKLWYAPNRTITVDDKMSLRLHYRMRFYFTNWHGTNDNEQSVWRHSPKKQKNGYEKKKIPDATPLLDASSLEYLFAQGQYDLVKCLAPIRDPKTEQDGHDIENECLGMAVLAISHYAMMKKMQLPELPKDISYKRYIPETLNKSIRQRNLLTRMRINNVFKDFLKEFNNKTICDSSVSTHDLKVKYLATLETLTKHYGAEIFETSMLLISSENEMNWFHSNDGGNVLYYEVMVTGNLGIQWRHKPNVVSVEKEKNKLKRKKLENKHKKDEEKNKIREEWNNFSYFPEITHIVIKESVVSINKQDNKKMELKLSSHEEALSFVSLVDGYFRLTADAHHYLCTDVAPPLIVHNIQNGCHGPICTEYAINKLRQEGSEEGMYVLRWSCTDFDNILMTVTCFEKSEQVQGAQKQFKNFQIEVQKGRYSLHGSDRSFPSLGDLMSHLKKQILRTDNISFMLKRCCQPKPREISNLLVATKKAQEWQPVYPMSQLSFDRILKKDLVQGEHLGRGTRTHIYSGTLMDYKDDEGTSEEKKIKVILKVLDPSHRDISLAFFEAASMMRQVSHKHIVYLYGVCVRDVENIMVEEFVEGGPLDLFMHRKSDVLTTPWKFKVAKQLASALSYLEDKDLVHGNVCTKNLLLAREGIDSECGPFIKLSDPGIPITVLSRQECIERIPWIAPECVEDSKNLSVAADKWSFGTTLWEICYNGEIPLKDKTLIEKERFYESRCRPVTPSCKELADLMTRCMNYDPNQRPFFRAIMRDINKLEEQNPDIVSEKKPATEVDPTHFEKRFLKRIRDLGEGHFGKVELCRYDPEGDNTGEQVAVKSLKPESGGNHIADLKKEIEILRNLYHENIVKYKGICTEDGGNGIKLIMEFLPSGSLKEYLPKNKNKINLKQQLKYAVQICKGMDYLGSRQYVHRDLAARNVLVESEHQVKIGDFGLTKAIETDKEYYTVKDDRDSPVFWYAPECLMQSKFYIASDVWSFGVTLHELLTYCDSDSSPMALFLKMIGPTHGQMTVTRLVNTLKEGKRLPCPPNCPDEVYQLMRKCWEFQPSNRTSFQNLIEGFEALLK
Sequence of GST-JAK3 enzyme (P52333 whole entry): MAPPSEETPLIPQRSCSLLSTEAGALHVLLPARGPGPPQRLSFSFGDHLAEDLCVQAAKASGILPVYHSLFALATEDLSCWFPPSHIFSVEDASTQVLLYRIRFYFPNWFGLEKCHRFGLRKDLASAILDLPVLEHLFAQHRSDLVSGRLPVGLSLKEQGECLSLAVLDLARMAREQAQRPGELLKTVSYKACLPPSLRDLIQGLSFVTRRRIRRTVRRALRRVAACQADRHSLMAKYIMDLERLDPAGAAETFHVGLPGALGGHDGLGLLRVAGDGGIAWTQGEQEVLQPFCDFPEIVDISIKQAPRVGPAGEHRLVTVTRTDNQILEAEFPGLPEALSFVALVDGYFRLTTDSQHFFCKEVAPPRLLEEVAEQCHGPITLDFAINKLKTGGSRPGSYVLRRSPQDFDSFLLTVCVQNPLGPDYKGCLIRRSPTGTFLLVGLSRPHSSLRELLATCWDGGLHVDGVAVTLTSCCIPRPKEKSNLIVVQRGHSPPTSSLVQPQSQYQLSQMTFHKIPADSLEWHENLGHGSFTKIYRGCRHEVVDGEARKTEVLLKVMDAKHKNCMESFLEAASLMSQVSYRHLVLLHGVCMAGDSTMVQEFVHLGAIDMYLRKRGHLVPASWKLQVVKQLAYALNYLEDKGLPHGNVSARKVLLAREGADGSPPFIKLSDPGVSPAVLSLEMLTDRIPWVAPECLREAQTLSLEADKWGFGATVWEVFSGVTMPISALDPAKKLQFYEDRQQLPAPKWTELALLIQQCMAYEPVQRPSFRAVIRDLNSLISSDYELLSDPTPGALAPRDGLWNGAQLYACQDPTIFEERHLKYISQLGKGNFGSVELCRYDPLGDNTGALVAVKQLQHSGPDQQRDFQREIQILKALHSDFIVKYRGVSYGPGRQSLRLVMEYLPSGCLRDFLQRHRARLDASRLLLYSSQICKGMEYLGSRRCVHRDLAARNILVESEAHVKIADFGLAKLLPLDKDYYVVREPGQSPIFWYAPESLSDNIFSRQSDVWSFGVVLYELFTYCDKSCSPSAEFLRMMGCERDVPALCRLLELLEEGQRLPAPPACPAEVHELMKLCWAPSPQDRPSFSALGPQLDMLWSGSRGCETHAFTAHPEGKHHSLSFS

In the case of `NC(=O)c1cnn2cc(-c3ccccc3)cc2c1N[C@@H]1CCCNC1` [Example 48, (R)-6-phenyl-4-(piperidin-3-ylamino)pyrrolo[1,2-b]pyridazine-3-carboxamide, HCl], the figures for the IC50 on GST-JAK1 enzyme (JAK1 kinase inhibition) and on GST-JAK3 enzyme were 53.4 nM and 57.1 nM, respectively.

As for `CCOC(=O)N1CCC[C@@H](Nc2c(C(N)=O)cnn3cc(-c4ccccc4)cc23)C1` [Example 51, ethyl (3R)-3-((3-carbamoyl-6-phenylpyrrolo[1,2-b]pyridazin-4-yl)amino)-1-piperidinecarboxylate], the half-maximal inhibitory concentration (IC50) at GST-JAK1 enzyme (JAK1 kinase inhibition) was 903 nM; on GST-JAK3 enzyme, 285 nM.

Turning to `COc1ccc(-c2cc3c(N[C@@H]4CCN(C(=O)C(N)=O)CC4(C)C)c(C(N)=O)cnn3c2)cn1` [Example 55, (R)-4-(1-(2-amino-2-oxoacetyl)-3,3-dimethylpiperidin-4-ylamino)-6-(6-methoxypyridin-3-yl)pyrrolo[1,2-b]pyridazine-3-carboxamide], the results for the IC50 at GST-JAK1 enzyme (JAK1 kinase inhibition) and on GST-JAK3 enzyme were 4.4 nM and 0.9 nM, respectively.

With `C[C@@H]1[C@H]2CN(S(C)(=O)=O)C[C@H]2C[C@H]1Nc1c(C(N)=O)cnn2cc(-c3cnc(N)nc3)cc12` [Example 59, 6-(2-amino-5-pyrimidinyl)-4-(((3aS,4R,5R,6aS)-4-methyl-2-(methylsulfonyl)octahydrocyclopenta[c]pyrrol-5-yl)amino)pyrrolo[1,2-b]pyridazine-3-carboxamide], the IC50 worked out at 0.2 nM on GST-JAK1 enzyme (JAK1 kinase inhibition) and 0.6 nM on GST-JAK3 enzyme.

Turning to `CC(=O)N1CCN(c2cc3c(N[C@@H]4C[C@@H]5CN(S(C)(=O)=O)C[C@@H]5[C@H]4C)c(C(N)=O)cnn3c2)C1=O` [Example 60, 6-(3-acetyl-2-oxo-1-imidazolidinyl)-4-(((3aS,4R,5R,6aS)-4-methyl-2-(methylsulfonyl)octahydrocyclopenta[c]pyrrol-5-yl)amino)pyrrolo[1,2-b]pyridazine-3-carboxamide], the figures for the concentration for half-maximal inhibition (IC50) at GST-JAK1 enzyme (JAK1 kinase inhibition) and on GST-JAK3 enzyme were 0.8 nM and 1.8 nM, respectively.

For the molecule `C[C@@H]1[C@H]2CN(C(=O)CO)C[C@H]2C[C@H]1Nc1c(C(N)=O)cnn2cc(-c3ccc(C(N)=O)cc3)cc12` [Example 61, 6-(4-carbamoylphenyl)-4-(((3aS,4R,5R,6aS)-2-glycoloyl-4-methyloctahydrocyclopenta[c]pyrrol-5-yl)amino)pyrrolo[1,2-b]pyridazine-3-carboxamide], the IC50 at GST-JAK1 enzyme (JAK1 kinase inhibition) amounted to 0.3 nM; at GST-JAK3 enzyme, 0.4 nM.

Take `C[C@@H]1[C@H]2CN(C(=O)C(C)(C)O)C[C@H]2C[C@H]1Nc1c(C(N)=O)cnn2cc(-c3cnc(N)nc3)cc12` [Example 62, 6-(2-amino-5-pyrimidinyl)-4-(((3aS,4R,5R,6aS)-2-(2-hydroxy-2-methylpropanoyl)-4-methyloctahydrocyclopenta[c]pyrrol-5-yl)amino)pyrrolo[1,2-b]pyridazine-3-carboxamide]: the IC50 at GST-JAK1 enzyme (JAK1 kinase inhibition) was found to be 3.6 nM; on GST-JAK3 enzyme, 1 nM.

Consider `CNC(=O)c1ccc(-c2cc3c(N[C@@H]4C[C@@H]5CN(C(=O)C(C)(C)O)C[C@@H]5[C@H]4C)c(C(N)=O)cnn3c2)cn1` [Example 63, 4-(((3aS,4R,5R,6aS)-2-(2-hydroxy-2-methylpropanoyl)-4-methyloctahydrocyclopenta[c]pyrrol-5-yl)amino)-6-(6-(methylcarbamoyl)-3-pyridinyl)pyrrolo[1,2-b]pyridazine-3-carboxamide], for which the IC50 amounted to 0.4 nM on GST-JAK1 enzyme (JAK1 kinase inhibition) and 0.7 nM on GST-JAK3 enzyme.

On to `C[C@@H]1[C@H]2CN(S(C)(=O)=O)C[C@H]2C[C@H]1Nc1c(C(N)=O)cnn2cc(-c3nnn(C)n3)cc12` [Example 67, 4-(((3aS,4R,5R,6aS)-4-methyl-2-(methylsulfonyl)octahydrocyclopenta[c]pyrrol-5-yl)amino)-6-(2-methyl-2H-tetrazol-5-yl)pyrrolo[1,2-b]pyridazine-3-carboxamide], for which the IC50 is 1.3 nM on GST-JAK1 enzyme (JAK1 kinase inhibition) and 0.4 nM on GST-JAK3 enzyme.

Take `C[C@@H]1[C@H]2CN(C(=O)CF)C[C@H]2C[C@H]1Nc1c(C(N)=O)cnn2cc(-c3cnc(N)c(F)c3)cc12` [Example 69, 6-(6-amino-5-fluoropyridin-3-yl)-4-((3aS,4R,5R,6aS)-2-(2-fluoroacetyl)-4-methyloctahydrocyclopenta[c]pyrrol-5-ylamino)pyrrolo[1,2-b]pyridazine-3-carboxamide]: the IC50 was found to be 1.2 nM on GST-JAK1 enzyme and 1.5 nM at GST-JAK3 enzyme.

`C[C@@H]1[C@H]2CN(C(=O)CO)C[C@H]2C[C@H]1Nc1c(C(N)=O)cnn2cc(-c3ccc(C(=O)NC4CC4)cc3)cc12` [Example 70, 6-(4-(cyclopropylcarbamoyl)phenyl)-4-((3aS,4R,5R,6aS)-2-(2-hydroxyacetyl)-4-methyloctahydrocyclopenta[c]pyrrol-5-ylamino)pyrrolo[1,2-b]pyridazine-3-carboxamide]: the IC50 on GST-JAK1 enzyme (JAK1 kinase inhibition) was determined as 0.3 nM; on GST-JAK3 enzyme it was 0.4 nM.

Take `C[C@@H]1[C@H]2CN(C(=O)C(C)(C)O)C[C@H]2C[C@H]1Nc1c(C(N)=O)cnn2cc(-c3cnn(C)c3)cc12` [Example 83, 4-((3aS,4R,5R,6aS)-2-(2-hydroxy-2-methylpropanoyl)-4-methyloctahydrocyclopenta[c]pyrrol-5-ylamino)-6-(1-methyl-1H-pyrazol-4-yl)pyrrolo[1,2-b]pyridazine-3-carboxamide]: the IC50 was found to be 1.4 nM at GST-JAK1 enzyme (JAK1 kinase inhibition) and 1.5 nM at GST-JAK3 enzyme.

As for `CCC(=O)N1C[C@H]2C[C@@H](Nc3c(C(N)=O)cnn4cc(-c5ccc(F)nc5)cc34)[C@H](C)[C@H]2C1` [Example 97, 6-(6-fluoropyridin-3-yl)-4-((3aS,4R,5R,6aS)-4-methyl-2-propionyloctahydrocyclopenta[c]pyrrol-5-ylamino)pyrrolo[1,2-b]pyridazine-3-carboxamide], the IC50 at GST-JAK1 enzyme (JAK1 kinase inhibition) stood at 3.1 nM; at GST-JAK3 enzyme, 1.4 nM.

As to `CC1(C)CN(c2ccc(C#N)cn2)CC[C@H]1Nc1c(C(N)=O)cnn2cc(N3CC[C@@H](O)C3=O)cc12` [Example 105, 4-((R)-1-(5-cyanopyridin-2-yl)-3,3-dimethylpiperidin-4-ylamino)-6-((R)-3-hydroxy-2-oxopyrrolidin-1-yl)pyrrolo[1,2-b]pyridazine-3-carboxamide], the half-maximal inhibitory concentration (IC50) at GST-JAK1 enzyme (JAK1 kinase inhibition) came out at 0.7 nM; on GST-JAK3 enzyme, 0.2 nM.

In the case of `CCCC(=O)O[C@H]1CCN(c2cc3c(N[C@@H]4CCN(c5ncc(C#N)cn5)CC4(C)C)c(C(N)=O)cnn3c2)C1=O` [Example 122, (S)-1-(3-carbamoyl-4-(((R)-1-(5-cyanopyrimidin-2-yl)-3,3-dimethylpiperidin-4-yl)amino)pyrrolo[1,2-b]pyridazin-6-yl)-2-oxopyrrolidin-3-yl butyrate], the half-inhibitory concentration (IC50) came out at 2.4 nM on GST-JAK1 enzyme (JAK1 kinase inhibition) and 1.4 nM on GST-JAK3 enzyme.

`CC[C@@H]1CN(S(C)(=O)=O)CC[C@H]1Nc1c(C(N)=O)cnn2cc(-c3cnn(CCC#N)c3)cc12` [Example 126, 6-(1-(2-cyanoethyl)-1H-pyrazol-4-yl)-4-((3R,4R)-3-ethyl-1-(methylsulfonyl)piperidin-4-ylamino)pyrrolo[1,2-b]pyridazine-3-carboxamide]: the IC50 worked out at 1 nM at GST-JAK1 enzyme (JAK1 kinase inhibition) and 1.5 nM at GST-JAK3 enzyme.

With `CC[C@@H]1CN(C(=O)[C@@H](O)CC)CC[C@H]1Nc1c(C(N)=O)cnn2cc(-c3cnn(C)c3)cc12` [Example 127, 4-(((3R,4R)-3-ethyl-1-((S)-2-hydroxybutanoyl)piperidin-4-yl)amino)-6-(1-methyl-1H-pyrazol-4-yl)pyrrolo[1,2-b]pyridazine-3-carboxamide], the IC50 stood at 7.6 nM at GST-JAK1 enzyme (JAK1 kinase inhibition) and 5.6 nM at GST-JAK3 enzyme.

Regarding `CC[C@@H]1CN(C(=O)C(C)(C)O)CC[C@H]1Nc1c(C(N)=O)cnn2cc(-c3ccnc(C)c3)cc12` [Example 131, 4-((3R,4R)-3-ethyl-1-(2-hydroxy-2-methylpropanoyl)piperidin-4-ylamino)-6-(2-methylpyridin-4-yl)pyrrolo[1,2-b]pyridazine-3-carboxamide], the IC50 on GST-JAK1 enzyme (JAK1 kinase inhibition) came out at 3.6 nM; at GST-JAK3 enzyme it was 7.1 nM.

`CC[C@@H]1CN(C(=O)[C@H](C)O)CC[C@H]1Nc1c(C(N)=O)cnn2cc(-c3ccnc(OC)c3)cc12` [Example 134, 4-((3R,4R)-3-ethyl-1-((S)-2-hydroxypropanoyl)piperidin-4-ylamino)-6-(2-methoxypyridin-4-yl)pyrrolo[1,2-b]pyridazine-3-carboxamide]: the IC50 on GST-JAK1 enzyme (JAK1 kinase inhibition) was found to be 4.5 nM; on GST-JAK3 enzyme, 7 nM.

Turning to `CC[C@@H]1CN(C(=O)[C@H](C)O)CC[C@H]1Nc1c(C(N)=O)cnn2cc(-c3cnn(CC(C)C)c3)cc12` [Example 137, 4-((3R,4R)-3-ethyl-1-((S)-2-hydroxypropanoyl)piperidin-4-ylamino)-6-(1-isobutyl-1H-pyrazol-4-yl)pyrrolo[1,2-b]pyridazine-3-carboxamide], the figures for the IC50 at GST-JAK1 enzyme (JAK1 kinase inhibition) and at GST-JAK3 enzyme were 2 nM and 1.4 nM, respectively.

Regarding `CC[C@@H]1CN(C(=O)[C@@H](C)O)CC[C@H]1Nc1c(C(N)=O)cnn2cc(-c3cnn(C)c3)cc12` [Example 152, 4-((3R,4R)-3-ethyl-1-((R)-2-hydroxypropanoyl)piperidin-4-ylamino)-6-(1-methyl-1H-pyrazol-4-yl)pyrrolo[1,2-b]pyridazine-3-carboxamide], the IC50 on GST-JAK1 enzyme (JAK1 kinase inhibition) stood at 9 nM; on GST-JAK3 enzyme, 7.8 nM.
